Numbering of substitutions follows the chain as printed.
What was measured:
[1] = target: T1, rat COMT (rCOMT), catechol-O-methyltransferase (Rattus norvegicus, UniProt P22734); assay: co-crystal structures ([…]), semi-holo, and ([…]), with tolcapone and Mg2+; assay type: binding
T1 construct: soluble N-terminally truncated form, lacks the N-terminal 43 residues
T1 sequence (P22734 44-264): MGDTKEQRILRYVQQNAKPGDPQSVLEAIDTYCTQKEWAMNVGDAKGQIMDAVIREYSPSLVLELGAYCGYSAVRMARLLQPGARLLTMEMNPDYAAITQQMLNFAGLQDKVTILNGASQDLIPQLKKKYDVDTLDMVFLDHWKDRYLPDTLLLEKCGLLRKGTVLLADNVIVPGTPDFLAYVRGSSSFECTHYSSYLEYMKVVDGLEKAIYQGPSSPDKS

[2] = target: T2, humanized rat COMT (hrCOMT), catechol-O-methyltransferase (Rattus norvegicus, UniProt P22734, M134I/Y138C); assay: co-crystal structure ([…]) at […] Å; IC50 from activity-based high-throughput screen; assay type: biochemical
T2 sequence (P22734 44-264 M134I/Y138C): T1 sequence (P22734 44-264) with M91I, Y95C

Row | Structure (SMILES) | co-crystal structures (7), semi-holo, and (8), with tolcapone and Mg2+ [1] | IC50 [2]
1 | Nc1ncnc2c1ncn2[C@@H]1O[C@H](C[C@@H](N)CC[C@H](N)C(=O)O)[C@@H](O)[C@H]1O [sinefungin] | Co-crystal structure with the SAM analogue sinefungin. Semi-holo form. | –
2 | N=C(N)c1ccc(NC(=O)Nc2cccc(CN)c2)cc1 [4-[3-(3-aminomethylphenyl)-ureido]-benzamidine] | – | 4.4 µM

— article PMC4118827, “Mapping the conformational space accessible to catechol-O-methyltransferase” (Acta Crystallographica Section D: Biological Crystallography, 2014)
